# Laboratory results from patent publication US20230391727A1, “ANALOGUES OF PENTAMIDINE AND METHODS FOR TREATING INFECTIONS” (Auransa Inc., priority 2020, published 2023).
# Values joined by “and” are separate entries in the source; they are usually repeats but may differ in a detail not shown here. Identical values can stand only once. Like-named read-outs stand apart in the source and are kept apart here.
# Key:
# Assay type in all cases: cell-based
# [1] = tested on: human primary hepatocytes; assay: alamarBlue cell viability, cytotoxicity in hepatocytes; conditions: 24 hours
# Procedure: Compound 3 was tested for cytotoxicity in human primary hepatocytes in duplicate at 8 concentrations ranging from 0.03 μM to 100 μM (0.013 μg/ml to 44.95 μg/ml ).
# This assay was performed using cryopreserved human primary hepatocytes (PHH). The cryopreserved PHH were seeded in collagen I coated 96-well plates in plating medium. The medium was replaced with incubation medium 2-4 hours after seeding. After overnight culture, test compound (compound 3) (0.03, 0.1, 0.3, 1, 3, 10, 30, 100 μM), reference compound (chlorpromazine) and vehicle control (1% DMSO) were added, and incubated with the cells for 24 hours followed by the addition of the alamarBlue cell viability reagent. The plates are analyzed for fluorescent intensity after alamarBlue addition. % of cell viability (% of control) was calculated by comparing the background (wells without cells) corrected fluorescent intensity in the compound treated wells and vehicle control treated wells. IC50 values were determined by non-linear regression analysis of the concentration-response curves using the Hill equation. Testing was done in duplicate.
# [2] = tested on: Staphylococcus aureus BAA-1556 (MRSA); assay: MIC assay against gram positive and antibiotic-resistant S. aureus; conditions: Staphylococcus aureus BAA-1556, MRSA; read-out: MIC
# Procedure: (§1) The MICs of vancomycin and linezolid were determined as quality controls and the MIC values of each strain met the acceptance criteria based on PDS historical reference data.
# (§2) The direct colony suspension method was used to prepare inoculated broth. Isolated colonies were taken from an 18-24 h culture plate. Optical density measurements (OD620 nm) were used to estimate the bacterial density. The test article, compound 3, and reference control stock solutions were prepared in 100% DMSO as 50× stock solutions. The 50× stock solutions were diluted by 2-fold serial titrations with 100% DMSO for a total of 11 concentrations. A 4 μL aliquot of each dilution was added to 196 μL of cation-adjusted Mueller Hinton Broth II medium seeded with the organism in wells of a 96 well plate. The final vehicle concentration was two percent (2%) in all assay wells. The final bacterial count was 2 to 8×10^5 CFU/mL. The final compound 3 concentration range was 16 to 0.016 μg/mL. Each test substance dilution was evaluated in duplicate on one test occasion. Vehicle-control and reference controls were used as blank and positive controls, respectively. Plates were incubated at 35-37° C. for 18 h. The test plates were visually examined and each well was visually scored for growth or complete inhibition of growth. The MIC value was recorded.
# [3] = tested on: Staphylococcus aureus ATCC 19636; assay: as above; conditions: ATCC19636; Staphylococcus aureus ATCC 19636; read-out: MIC
# Procedure: as §1, §2
# [4] = tested on: Staphylococcus aureus VRS-2 (VRSA); assay: as above; conditions: Staphylococcus aureus VRS-2, VRSA; read-out: MIC
# Procedure: as §1, §2
# [5] = tested on: Staphylococcus aureus ATCC 33591 (MRSA); assay: as above; conditions: Staphylococcus aureus ATCC 33591, MRSA; read-out: MIC
# Procedure: as §1, §2
# Candida parapsilosis CP2 = assay: Anti-fungal MIC assay; conditions: Lodderomyces parapsilosis
# Outline: (§3)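 First, DMSO stocks (6400 μg/ml, 100× highest test level) were diluted to 2× in RPMI-1640 with MOPS at pH 7.0. Trays were then held at 35° C without agitation.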
# Candida parapsilosis CP3 = assay: Anti-fungal MIC assay; conditions: Lodderomyces parapsilosis
# Outline: as §3
# Candida glabrata 05-761 = assay: Anti-fungal MIC assay
# Outline: as §3
# Candida auris DI17-46 = assay: Anti-fungal MIC assay; conditions: Candidozyma auris
# Outline: as §3
# [6] = tested on: Candida guilliermondii Cgui2; assay: Anti-fungal MIC assay; conditions: Meyerozyma guilliermondii
# Outline: as §3
# [7] = tested on: Aspergillus fumigatus AF2; assay: Anti-fungal MIC assay
# Outline: as §3
# [8] = tested on: Aspergillus fumigatus AF293; assay: Anti-fungal MIC assay
# Outline: as §3
# [9] = read-out: MIC, 50% growth inhibition
# [10] = read-out: MIC, 100% growth inhibition
smiles,measurement,setting,value
"N=C(N)c1ccc(CC[C@H]2CCC[C@@H](CCc3ccc(C(=N)N)cc3)C2)cc1 [Compound 3, 4,4′-(2,2′-((1R,3S)-cyclohexane-1,3-diyl)bis(ethane-2,1-diyl))dibenzimidamide]",effect on cell viability,[1]; 10 μM (4.49 μg/ml) and lower concentrations,No inhibition on cell viability
same,effect on cell viability,[1]; 30 uM and 100 μM (13.48 μg/ml and 44.95 μg/ml),significant effects on cell viability
same,IC50,"[1]; Hepatocyte, human primary hepatocytes",25 µM and 11.2 µg/mL
same,MIC,[2],0.25 µg/mL
same,MIC,[3],0.125 µg/mL
same,MIC,[4],0.25 µg/mL
same,MIC,[5],0.125 µg/mL
same,MIC,Candida parapsilosis CP2; [9],1 µg/mL
same,MIC,Candida parapsilosis CP2; [10],4 µg/mL
same,MIC,Candida parapsilosis CP3; [9],2 µg/mL
same,MIC,Candida parapsilosis CP3; [10],8 µg/mL
same,MIC,"Candida glabrata 05-761; Nakaseomyces glabratus, 05761, read-out: MIC, 50% growth inhibition",1 µg/mL
same,MIC,"Candida glabrata 05-761; Nakaseomyces glabratus, 05761, read-out: MIC, 100% growth inhibition",2 µg/mL
same,MIC,"Candida auris DI17-46; DI1746, read-out: MIC, 50% growth inhibition",2 µg/mL
same,MIC,"Candida auris DI17-46; DI1746, read-out: MIC, 100% growth inhibition",4 µg/mL
same,MIC,[6]; [9],2 µg/mL
same,MIC,[6]; [10],2 µg/mL
same,MIC,[7]; [9],32 µg/mL
same,MIC,[7]; [10],32 µg/mL
same,MIC,[8]; [9],16 µg/mL
same,MIC,[8]; [10],16 µg/mL
